# Data from patent US20090099141A1, “COMPOSITIONS AND METHODS FOR TREATING VITAMIN D DEFICIENCIES” (priority 2005, published 2009).
# Assay: Serum level of 25(OH)D in an adult human after oral 250 μg (10,000 IU) vitamin D3 tablets (Nichols method)
# Assay type: in vivo
# Experimental: During the winter months an adult living in a northern region of the United States receiving no vitamin D supplements other than through their normal diet is found to have a serum level of 25(OH)D of about 25 nmole/L. The person is provided with four (4) blister packs, each pack containing four (4) 250 μg (10,000 IU) of vitamin D3. The blister pack has instructions to take one tablet by mouth once a week. The person is instructed to take all of the tablets according to instructions provided on the pack. Blood samples are drawn each week just before a tablet is taken and the serum levels of 25(OH)D are determined. Serum levels of 25(OH)D can be determined by the Nichols method (catalog no. 40-2135; Nichols Institute Diagnostics). Within approximately two months, serum levels increase by about 15 to about 20 nmole/L to a level of at least about 40 nmole/L.
# During the winter months an adult living in a northern region of the United States receiving no vitamin D supplements other than through their normal diet is found to have a serum level of 25(OH)D of about 18 nmole/L. The person is provided with four (4) blister packs, each pack having one tablet for each day of the month [about thirty (30) tablets], and each tablet containing 250 μg (10,000 IU) of vitamin D3. The blister pack has instructions to take one tablet by mouth once a day, noting on the pack, where indicated, the date and time each tablet is taken. The person is instructed to take all of the tablets according to instructions provided on the pack. Blood samples are drawn after one (1) week and each week thereafter at approximately the same time and the serum levels of 25(OH)D are determined. Serum levels of 25(OH)D can be determined by the Nichols method (catalog no. 40-2135; Nichols Institute Diagnostics). Within approximately two months, serum levels increase by at least 100 nmole/L to a level of at least about 120 nmole/L and, within about 4 months, increase by at least about 180 nmole/L to a level of at least about 200 nmole/L.
# During the winter months an adult living in a northern region of the United States receiving no vitamin D supplements other than through their normal diet is found to have a serum level of 25(OH)D of about 35 nmole/L. The person is provided with four (4) blister packs, each pack containing fifteen (15) 250 μg (10,000 IU) of vitamin D3. The blister pack has instructions to take one tablet by mouth once every other day, noting on the pack, where indicated, the date and time each tablet is taken. The person is instructed to take all of the tablets according to instructions provided on the pack. Blood samples are drawn each week at approximately the same time and the serum levels of 25(OH)D are determined. Serum levels of 25(OH)D can be determined by the Nichols method (catalog no. 40-2135; Nichols Institute Diagnostics). Within approximately one-month serum levels increase by at least about 60-70 nmole/L to a level of at least about 100 nmole/L and within about 4 months […] a level of about 120 nmole/L.
# [1] = adult female, baseline about 18 nmole/L, 250 μg (10,000 IU) tablet by mouth once a day, within about 4 months
# [2] = adult female, baseline about 18 nmole/L, 250 μg (10,000 IU) tablet by mouth once a day, within approximately two months
# [3] = adult male, baseline about 35 nmole/L, 250 μg (10,000 IU) tablet by mouth once every other day, within approximately one month
smiles,measurement,setting,value
C=C1CC[C@H](O)C/C1=C/C=C1\CCC[C@]2(C)[C@@H]([C@H](C)CCCC(C)C)CC[C@@H]12 [vitamin D3],increase in serum level of 25(OH)D,[1],at least 180 nmole/L
same,serum level of 25(OH)D,[1],at least 200 nmole/L
same,increase in serum level of 25(OH)D,[2],at least 100 nmole/L
same,serum level of 25(OH)D,[2],at least 120 nmole/L
same,serum level of 25(OH)D,"adult male, baseline about 25 nmole/L, 250 μg (10,000 IU) tablet by mouth once a week, within approximately two months",at least 40 nmole/L
same,serum level of 25(OH)D,"adult male, baseline about 35 nmole/L, 250 μg (10,000 IU) tablet by mouth once every other day, within about 4 months",about 120 nmole/L
same,increase in serum level of 25(OH)D,[3],60 to 70 nmol/L
same,serum level of 25(OH)D,[3],at least 100 nmole/L
